Test results reported in patent US6737383B1, “Herbicidal oxadiazolidines” (priority 1999, dated 2004).

Assays:
Italian ryegrass = assay: Test E Italian ryegrass; assay type: in vivo, Lolium multiflorum; conditions: Preemergence
blackgrass = assay: Test E blackgrass; assay type: in vivo, Alopecurus myosuroides; conditions: Preemergence
dallisgrass = assay: Test D dallisgrass; assay type: in vivo, Paspalum dilatatum; conditions: Preemergence, 0 to 100 scale
In short: (§1)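 Visual injury ratings, 0 = no injury to 100 = complete control, taken 14 to 21 days after treatment. Test chemicals were in a surfactant-containing non-phytotoxic solvent; preemergence treatments went onto the sandy loam surface of seeded greenhouse pots within one day of sowing.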

green foxtail [1] = assay: Test E green foxtail; assay type: in vivo, Setaria viridis; conditions: Preemergence
Green foxtail [2] = assay: Test D green foxtail; assay type: in vivo; conditions: Rate 250 g/ha; Preemergence; 0 to 100 scale
In short: as §1

winter barley = assay: Test E winter barley; assay type: in vivo, Hordeum vulgare; conditions: Preemergence
winter wheat [3] = assay: Test E winter wheat; assay type: in vivo, Triticum aestivum; conditions: Postemergence
In short: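 Greenhouse test: for postemergence, foliar application at 1- to 4-leaf stage; compound in non-phytotoxic solvent with surfactant. Rating is visual, relative to untreated controls, about 21 to 28 days after treatment.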

bamyardgrass = assay: Test B flood test barnyardgrass; assay type: in vivo, Echinochloa crus-galli
In short: (§2)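 Read-out is a visual response score from 0 (no effect) to 10 (complete control), assigned by comparison with untreated controls. Treatment was applied at the 2-leaf stage, and plants stayed in the greenhouse for twelve to sixteen days before scoring.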

duck salad = assay: Test B flood test duck salad; assay type: in vivo, Heteranthera limosa
In short: as §2

Green foxtail [4] = assay: Test D green foxtail; assay type: in vivo
In short: as §1

wild oat = assay: Test E wild oat; assay type: in vivo, Avena fatua; conditions: Preemergence
winter wheat [5] = assay: Test E winter wheat; assay type: in vivo, Triticum aestivum; conditions: Preemergence
purple nutsedge = assay: Test B pre/postemergence purple nutsedge; assay type: in vivo, Cyperus rotundus
In short: (§3)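 Response is a visual 0-to-10 score relative to untreated plants, where 0 means no effect and 10 means complete control, taken twelve to sixteen days after application. Treatments went onto soil at planting and onto foliage of 1- to 4-leaf plants, using a surfactant-containing non-phytotoxic solvent.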

itchgrass = assay: Test D itchgrass; assay type: in vivo, Rottboellia exaltata; conditions: Preemergence, 0 to 100 scale
In short: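 Scoring used a 0–100 visual injury scale, with 0 meaning no effect and 100 complete control, assessed 14–21 days after application alongside untreated pots. Preemergence treatments went onto sandy loam surfaces of separately potted seeds within a day of sowing.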

crabgrass = assay: Test B pre/postemergence crabgrass; assay type: in vivo, Digitaria sanguinalis
In short: as §3

[6] = Rate 62 g/ha, 0 to 100 scale, 0 no effect, 100 complete control
[7] = Rate 125 g/ha, 0 to 100 scale (0 no effect, 100 complete control)
[8] = Rate 16 g/ha, 0 no injury, 100 complete control
[9] = Rate 32 g/ha, 0 no injury, 100 complete control
[10] = Rate 64 g/ha, 0 no injury, 100 complete control
[11] = Rate 125 g/ha, 0 no injury, 100 complete control
[12] = Rate 250 g/ha, headed Pre-emergence (flood test species), scale 0 to 10 (0 no effect, 10 complete control)
[13] = Rate 500 g/ha, headed Pre-emergence (flood test species), scale 0 to 10 (0 no effect, 10 complete control)
[14] = Rate 1000 g/ha, Pre-emergence (as headed), scale 0 to 10
[15] = Rate 64 g/ha, Preemergence; 0 to 100 scale, 0 no injury, 100 complete control
[16] = Rate 125 g/ha, Preemergence; 0 to 100 scale, 0 no injury, 100 complete control
[17] = Postemergence, Rate 125 g/ha, scale of 0 to 10 where 0 is no effect and 10 is complete control
[18] = Postemergence, Rate 250 g/ha, scale 0 to 10, 0 no effect, 10 complete control
[19] = Preemergence, Rate 62 g/ha, scale 0 to 10 (0 no effect, 10 complete control)
[20] = Preemergence, Rate 250 g/ha, scale of 0 to 10 where 0 is no effect and 10 is complete control
[21] = Preemergence, Rate 500 g/ha, scale 0 to 10 (0 no effect, 10 complete control)
[22] = Rate 62 g/ha, Postemergence, scale of 0 to 10 where 0 is no effect and 10 is complete control
[23] = Rate 500 g/ha, Postemergence, scale 0 to 10, 0 no effect, 10 complete control

CCCn1c(=O)on(C(=O)N(c2ccc(Cl)cc2)C(C)C)c1=O [Compound 119]
0: Barnyardgrass plant response rating (bamyardgrass; [12]) | Plant response rating, Barnyardgrass (bamyardgrass; [13]) | Barnyardgrass plant response rating (bamyardgrass; [14]) | Barnyardgrass plant response rating (bamyardgrass; Rate 2000 g/ha, Pre-emergence (as headed), scale 0 to 10, 0 no effect, 10 complete control) | Ducksalad plant response rating (duck salad; [12]) | Plant response rating, Ducksalad (duck salad; [13]) | Ducksalad plant response rating (duck salad; [14]) | Ducksalad plant response rating (duck salad; Rate 2000 g/ha, Pre-emergence (as headed), scale 0 to 10) | Plant response rating, Wheat (winter) (winter wheat [5]; [6]) | Nutsedge plant response rating (purple nutsedge; [17]) | Nutsedge plant response rating (purple nutsedge; [18]) | Nutsedge plant response rating (purple nutsedge; [19]) | Plant response rating, Nutsedge (purple nutsedge; Preemergence, Rate 125 g/ha, scale 0 to 10 (0 no effect, 10 complete control)) | Plant response rating, Nutsedge (purple nutsedge; [20]) | Nutsedge plant response rating (purple nutsedge; [22]) | Nutsedge plant response rating (purple nutsedge; [23]) | Plant response rating, Itchgrass (itchgrass; [8])
75: Plant response rating, Green foxtail (Green foxtail [4]; Preemergence; Rate 32 g/ha; 0 to 100 scale, 0 no injury, 100 complete control) | Plant response rating, Itchgrass (itchgrass; Rate 250 g/ha)
20: Plant response rating, Blackgrass (blackgrass; [6]) | Plant response rating, Wheat (winter) (winter wheat [3]; Rate 250 g/ha, 0 to 100 scale (0 no effect, 100 complete control)) | Plant response rating, Wild oat (wild oat; [6]) | Plant response rating, Wheat (winter) (winter wheat [5]; [7])
5: Plant response rating, Barley (winter) (winter barley; [6])
65: Plant response rating, Dallisgrass (dallisgrass; [9])
30: Plant response rating, Dallisgrass (dallisgrass; [8]) | Plant response rating, Wheat (winter) (winter wheat [5]; Rate 250 g/ha, 0 to 100 scale)
3: Crabgrass plant response rating (crabgrass; [17])
85: Plant response rating, Dallisgrass (dallisgrass; [10])
10: Plant response rating, I. Ryegrass (Italian ryegrass; [6]) | Plant response rating, Blackgrass (blackgrass; [7]) | Plant response rating, Green foxtail (green foxtail [1]; [6]) | Plant response rating, Barley (winter) (winter barley; [7]) | Plant response rating, Barley (winter) (winter barley; Rate 250 g/ha, 0 to 100 scale) | Plant response rating, Wheat (winter) (winter wheat [3]; Rate 62 g/ha, 0 to 100 scale) | Plant response rating, Wheat (winter) (winter wheat [3]; Rate 125 g/ha, 0 to 100 scale) | Plant response rating, Green foxtail (Green foxtail [4]; Preemergence; Rate 16 g/ha; 0 to 100 scale, 0 no injury, 100 complete control) | Plant response rating, Green foxtail (Green foxtail [4]; Rate 16 g/ha; Preemergence; 0 to 100 scale, 0 no injury, 100 complete control) | Plant response rating, Wild oat (wild oat; [7]) | Plant response rating, Itchgrass (itchgrass; [9]) | Crabgrass plant response rating (crabgrass; [21])
6: Nutsedge plant response rating (purple nutsedge; [21])
100: Plant response rating, Green foxtail (Green foxtail [2]) | Plant response rating, Green foxtail (Green foxtail [4]; Rate 32 g/ha; Preemergence; 0 to 100 scale, 0 no injury, 100 complete control) | Green foxtail plant response rating (Green foxtail [4]; [16]) | Plant response rating, Green foxtail (Green foxtail [4]; [16]) | Plant response rating, Green foxtail (Green foxtail [4]; Rate 250 g/ha; Preemergence; 0 to 100 scale)
50: Plant response rating, Blackgrass (blackgrass; Rate 250 g/ha, 0 to 100 scale) | Plant response rating, Green foxtail (green foxtail [1]; [7]) | Plant response rating, Itchgrass (itchgrass; [10])
2: Crabgrass plant response rating (crabgrass; [22])
60: Plant response rating, I. Ryegrass (Italian ryegrass; Rate 250 g/ha, 0 to 100 scale) | Plant response rating, Green foxtail (green foxtail [1]; Rate 250 g/ha, 0 to 100 scale) | Plant response rating, Itchgrass (itchgrass; [11])
98: Plant response rating, Dallisgrass (dallisgrass; Rate 250 g/ha)
8: Crabgrass plant response rating (crabgrass; [18]) | Plant response rating, Crabgrass (crabgrass; [20]) | Crabgrass plant response rating (crabgrass; [23])
7: Crabgrass plant response rating (crabgrass; [19])
90: Plant response rating, Dallisgrass (dallisgrass; [11]) | Green foxtail plant response rating (Green foxtail [4]; [15]) | Plant response rating, Green foxtail (Green foxtail [4]; [15])
35: Plant response rating, I. Ryegrass (Italian ryegrass; [7])
